Results: US6461997B1, “Triazole sulfones having herbicidal activity” (Monsanto Technology LLC, priority 1999, dated 2002)

Test system: PANDI (fall panicum)
Assay: Pre-emergence herbicidal activity, warm season
Format: in vivo, Panicum dichotomiflorum
Conditions: GR80 = lowest tested rate (300, 100, 30, 10 g/ha) with 80% or greater inhibition; approx. 14 days after treating; 30/21° C.
Procedure, shortened: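 Seeds sown in sterilised fertilised topsoil received surface-applied compound in 50:50 acetone/water, typically at 300, 100, 30 and 10 g/ha, then greenhouse-grown at 30/21° C (warm-season species) or 18/13° C (cool-season species). Percent inhibition versus untreated plants was scored at about 14 days, giving GR80; an asterisk marks activity short of 80% at the top rate.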

Structure (SMILES)	Pre-emergence activity (GR80) PANDI [g/ha]
CCN(CC)C(=O)n1cnc(S(=O)(=O)C(F)(F)SCc2ccccc2)n1 [Example 10]	300

Test system: BROTE (downy brome)
Assay: Post-emergence herbicidal activity, cool season
Format: in vivo, Bromus tectorum
Conditions: abraded plants sprayed at 300, 100, 30 and 10 g/ha; about 14 days after treatment
Procedure, shortened: (§1)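 GR80 values derive from percent growth inhibition scored approximately 14 days post-spray against abraded, unsprayed controls under an 18/13 °C regime. Foliar application to sandblast-abraded plants used rates of 300, 100, 30 and 10 g/ha in 50:50 acetone/water at 3,100 l/ha.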

Structure (SMILES)	Post-emergence activity GR80, BROTE
CCN(CC)C(=O)n1cnc(S(=O)(=O)C(F)(F)SCc2ccccc2)n1 [Example 10]	[empty]

Test system: BROTE (downy brome)
Assay: Pre-plant incorporated (PPI) herbicidal activity, cool season
Format: in vivo, Bromus tectorum
Conditions: weed, PPI application, 10 g/ha
Description: (§2) In another set of tests, the pre-plant incorporated (PPI) activity of compounds of this invention was evaluated on the same species as for the pre-emergence tests described above. In the PPI tests the following procedure, designed to simulate PPI application, was used.
(§3) A pre-prepared topsoil mixture (described above) was placed in a pot and compacted to a depth of 1.0 to 1.25 cm from the top of the pot. Seeds of each of several monocotyledonous and dicotyledonous annual plant species were placed on top of the soil. A sufficient quantity of soil to cover the seeds and level fill the pot was weighed into an open container. A known amount of the test compound was dissolved or suspended in an organic solvent and applied by spraying to this cover soil. The cover soil was thoroughly mixed to distribute the test compound throughout the cover soil, and was then applied as a cover layer over the seeds. Untreated soil was used as a cover layer for control pots. After treatment the plants were placed in a greenhouse where they received 0.64 cm of overhead irrigation. All subsequent watering consisted of a light overhead mist and/or subirrigation as needed for germination and growth. Tables 9 and 10 below relate to warm season plant species which were placed after pre-emergence treatment in a greenhouse with a 30/21° C. day/night temperature regime. Tables 11 and 12 below relates to cool season plant species placed after pre-emergence treatment in a greenhouse or growth chamber with an 18/13° C. day/night temperature regime. Only the compounds of Examples 1, 6, 8, 11, 13 and 15-20 were included in PPI tests.
(§4) Approximately 14 days after planting and treating, the plants were observed and herbicidal efficacy recorded as percent inhibition by comparison with untreated plants.

Structure (SMILES)	Percent inhibition BROTE [%]
CCN(CC)C(=O)n1cnc(S(=O)(=O)C(F)(F)SCc2ccccc2)n1 [Example 10]	0

Same assay, conditions: weed, PPI application, 30 g/ha

Structure (SMILES)	Percent inhibition BROTE [%]
CCN(CC)C(=O)n1cnc(S(=O)(=O)C(F)(F)SCc2ccccc2)n1 [Example 10]	0

Same assay, conditions: weed, PPI application, 100 g/ha

Structure (SMILES)	Percent inhibition BROTE [%]
CCN(CC)C(=O)n1cnc(S(=O)(=O)C(F)(F)SCc2ccccc2)n1 [Example 10]	10

Same assay, conditions: weed, PPI application, 300 g/ha

Structure (SMILES)	Percent inhibition BROTE [%]
CCN(CC)C(=O)n1cnc(S(=O)(=O)C(F)(F)SCc2ccccc2)n1 [Example 10]	35

Same assay, conditions: weed, PPI application, 900 g/ha

Structure (SMILES)	Percent inhibition BROTE [%]
CCN(CC)C(=O)n1cnc(S(=O)(=O)C(F)(F)SCc2ccccc2)n1 [Example 10]	60

Test system: STEME (common chickweed)
Assay: as above
Format: in vivo, Stellaria media
Conditions: weed, PPI application, 10 g/ha
Description: as §2, §3, §4

Structure (SMILES)	Percent inhibition STEME [%]
CCN(CC)C(=O)n1cnc(S(=O)(=O)C(F)(F)SCc2ccccc2)n1 [Example 10]	0

Same assay, conditions: weed, PPI application, 30 g/ha

Structure (SMILES)	Percent inhibition STEME [%]
CCN(CC)C(=O)n1cnc(S(=O)(=O)C(F)(F)SCc2ccccc2)n1 [Example 10]	0

Same assay, conditions: weed, PPI application, 100 g/ha

Structure (SMILES)	Percent inhibition STEME [%]
CCN(CC)C(=O)n1cnc(S(=O)(=O)C(F)(F)SCc2ccccc2)n1 [Example 10]	0

Same assay, conditions: weed, PPI application, 300 g/ha

Structure (SMILES)	Percent inhibition STEME [%]
CCN(CC)C(=O)n1cnc(S(=O)(=O)C(F)(F)SCc2ccccc2)n1 [Example 10]	0

Same assay, conditions: weed, PPI application, 900 g/ha

Structure (SMILES)	Percent inhibition STEME [%]
CCN(CC)C(=O)n1cnc(S(=O)(=O)C(F)(F)SCc2ccccc2)n1 [Example 10]	90

Test system: ALOMY (blackgrass)
Assay: Post-emergence herbicidal activity, cool season
Format: in vivo, Alopecurus myosuroides
Conditions: abraded plants sprayed at 300, 100, 30 and 10 g/ha; about 14 days after treatment
Procedure, shortened: as §1

Structure (SMILES)	Post-emergence activity GR80, ALOMY
CCN(CC)C(=O)n1cnc(S(=O)(=O)C(F)(F)SCc2ccccc2)n1 [Example 10]	[empty]

Test system: SETFA (giant foxtail)
Assay: Pre-plant incorporated (PPI) herbicidal activity, warm season
Format: in vivo, Setaria faberi
Conditions: PPI application, 10 g/ha
Description: as §2, §3, §4

Structure (SMILES)	Percent inhibition SETFA [%]
CCN(CC)C(=O)n1cnc(S(=O)(=O)C(F)(F)SCc2ccccc2)n1 [Example 10]	0

Same assay, conditions: PPI application, 30 g/ha

Structure (SMILES)	Percent inhibition SETFA [%]
CCN(CC)C(=O)n1cnc(S(=O)(=O)C(F)(F)SCc2ccccc2)n1 [Example 10]	60

Same assay, conditions: PPI application, 100 g/ha

Structure (SMILES)	Percent inhibition SETFA [%]
CCN(CC)C(=O)n1cnc(S(=O)(=O)C(F)(F)SCc2ccccc2)n1 [Example 10]	80

Same assay, conditions: PPI application, 300 g/ha

Structure (SMILES)	Percent inhibition SETFA [%]
CCN(CC)C(=O)n1cnc(S(=O)(=O)C(F)(F)SCc2ccccc2)n1 [Example 10]	100

Same assay, conditions: PPI application, 900 g/ha

Structure (SMILES)	Percent inhibition SETFA [%]
CCN(CC)C(=O)n1cnc(S(=O)(=O)C(F)(F)SCc2ccccc2)n1 [Example 10]	100

Test system: SETVI (green foxtail)
Assay: Pre-plant incorporated (PPI) herbicidal activity, cool season
Format: in vivo, Setaria viridis
Conditions: weed, PPI application, 30 g/ha
Description: as §2, §3, §4

Structure (SMILES)	Percent inhibition SETVI [%]
CCN(CC)C(=O)n1cnc(S(=O)(=O)C(F)(F)SCc2ccccc2)n1 [Example 10]	0

Same assay, conditions: weed, PPI application, 100 g/ha

Structure (SMILES)	Percent inhibition SETVI [%]
CCN(CC)C(=O)n1cnc(S(=O)(=O)C(F)(F)SCc2ccccc2)n1 [Example 10]	90

Same assay, conditions: weed, PPI application, 300 g/ha

Structure (SMILES)	Percent inhibition SETVI [%]
CCN(CC)C(=O)n1cnc(S(=O)(=O)C(F)(F)SCc2ccccc2)n1 [Example 10]	100

Same assay, conditions: weed, PPI application, 900 g/ha

Structure (SMILES)	Percent inhibition SETVI [%]
CCN(CC)C(=O)n1cnc(S(=O)(=O)C(F)(F)SCc2ccccc2)n1 [Example 10]	100
